± gives the uncertainty stated by the source.
Assay: xn = mol fraction of the nth substance listed

O=[N+]([O-])c1ccccc1 + CCCCCC
Details | viscosity [mPa·s]
293.17 K, 101.32 kPa, x1 = 0.183 | 0.408 ± 0.039
293.27 K, 101.32 kPa, x1 = 0.453 | 0.761 ± 0.042
293.65 K, 101.32 kPa, x1 = 0.419 | 0.697 ± 0.041
293.66 K, 101.32 kPa, x1 = 0.732 | 1.09 ± 0.045
293.77 K, 101.32 kPa, x1 = 0.287 | 0.552 ± 0.04
293.77 K, 101.32 kPa, x1 = 0.36 | 0.552 ± 0.04
294.1 K, 101.32 kPa, x1 = 0.559 | 0.799 ± 0.042
294.57 K, 101.32 kPa, x1 = 0.183 | 0.4 ± 0.039
294.75 K, 101.32 kPa, x1 = 0.419 | 0.651 ± 0.041
294.75 K, 101.32 kPa, x1 = 0.629 | 0.881 ± 0.043
294.85 K, 101.32 kPa, x1 = 0.453 | 0.692 ± 0.041
295.17 K, 101.32 kPa, x1 = 0.287 | 0.54 ± 0.04
295.17 K, 101.32 kPa, x1 = 0.36 | 0.54 ± 0.04
295.88 K, 101.32 kPa, x1 = 0.732 | 1.05 ± 0.044
296.05 K, 101.32 kPa, x1 = 0.559 | 0.775 ± 0.042
296.3 K, 101.32 kPa, x1 = 0.183 | 0.395 ± 0.039
296.4 K, 101.32 kPa, x1 = 0.453 | 0.665 ± 0.041
296.45 K, 101.32 kPa, x1 = 0.629 | 0.861 ± 0.043
296.57 K, 101.32 kPa, x1 = 0.287 | 0.529 ± 0.04
296.57 K, 101.32 kPa, x1 = 0.36 | 0.529 ± 0.04
296.85 K, 101.32 kPa, x1 = 0.419 | 0.621 ± 0.041
297.45 K, 101.32 kPa, x1 = 0.732 | 1.03 ± 0.044
298.07 K, 101.32 kPa, x1 = 0.559 | 0.747 ± 0.042
298.15 K, 101.32 kPa, x1 = 0.36 | 0.516 ± 0.04
298.25 K, 101.32 kPa, x1 = 0.287 | 0.516 ± 0.04
298.25 K, 101.32 kPa, x1 = 0.629 | 0.836 ± 0.043
298.35 K, 101.32 kPa, x1 = 0.419 | 0.605 ± 0.04
298.55 K, 101.32 kPa, x1 = 0.453 | 0.645 ± 0.041
303.15 K, 101 kPa, x2 = 0.072 | 1.319 ± 0.035
303.15 K, 101 kPa, x2 = 0.148 | 1.016 ± 0.027
303.15 K, 101 kPa, x2 = 0.246 | 0.8236 ± 0.022
303.15 K, 101 kPa, x2 = 0.318 | 0.6679 ± 0.018
303.15 K, 101 kPa, x2 = 0.391 | 0.5916 ± 0.016
303.15 K, 101 kPa, x2 = 0.51 | 0.4845 ± 0.013
303.15 K, 101 kPa, x2 = 0.618 | 0.4107 ± 0.011
303.15 K, 101 kPa, x2 = 0.735 | 0.3659 ± 0.0098
303.15 K, 101 kPa, x2 = 0.862 | 0.3216 ± 0.0087

c1ccccc1 + CCCCCC
Details | viscosity [mPa·s]
293.15 K, 101.33 kPa, x1 = 0.1713 | 0.327 ± 0.009
293.15 K, 101.33 kPa, x1 = 0.3148 | 0.345 ± 0.009
293.15 K, 101.33 kPa, x1 = 0.4632 | 0.371 ± 0.01
293.15 K, 101.33 kPa, x1 = 0.5799 | 0.406 ± 0.011
293.15 K, 101.33 kPa, x1 = 0.7266 | 0.454 ± 0.012
293.15 K, 101.33 kPa, x1 = 0.8082 | 0.494 ± 0.013
293.15 K, 101.33 kPa, x1 = 0.9173 | 0.57 ± 0.015
298 K, 101.33 kPa, x1 = 0.1026 | 0.3104 ± 0.0044
298 K, 101.33 kPa, x1 = 0.2013 | 0.3191 ± 0.0045
298 K, 101.33 kPa, x1 = 0.2817 | 0.3276 ± 0.0047
298 K, 101.33 kPa, x1 = 0.4385 | 0.3516 ± 0.0049
298 K, 101.33 kPa, x1 = 0.5967 | 0.3871 ± 0.0054
298 K, 101.33 kPa, x1 = 0.7149 | 0.4256 ± 0.0058
298 K, 101.33 kPa, x1 = 0.794 | 0.46 ± 0.0063
298 K, 101.33 kPa, x1 = 0.8993 | 0.5212 ± 0.007
298.1 K, 101 kPa, x2 = 0.2 | 0.469 ± 0.042
298.1 K, 101 kPa, x2 = 0.4 | 0.4 ± 0.039
298.1 K, 101 kPa, x2 = 0.5 | 0.377 ± 0.038
298.1 K, 101 kPa, x2 = 0.6 | 0.359 ± 0.037
298.1 K, 101 kPa, x2 = 0.8 | 0.334 ± 0.036
298.15 K, 101 kPa, x2 = 0.07 | 0.556 ± 0.024
298.15 K, 101 kPa, x2 = 0.182 | 0.5 ± 0.021
298.15 K, 101 kPa, x2 = 0.265 | 0.489 ± 0.02
298.15 K, 101 kPa, x2 = 0.405 | 0.429 ± 0.017
298.15 K, 101 kPa, x2 = 0.563 | 0.4 ± 0.016
298.15 K, 101.33 kPa, x1 = 0.0651 | 0.2983 ± 0.0034
298.15 K, 101.33 kPa, x1 = 0.1218 | 0.3034 ± 0.0035
298.15 K, 101.33 kPa, x1 = 0.1281 | 0.3134 ± 0.0082
298.15 K, 101.33 kPa, x1 = 0.2665 | 0.327 ± 0.0086
298.15 K, 101.33 kPa, x1 = 0.2763 | 0.3184 ± 0.0036
298.15 K, 101.33 kPa, x1 = 0.405 | 0.3471 ± 0.0091
298.15 K, 101.33 kPa, x1 = 0.4144 | 0.339 ± 0.0038
298.15 K, 101.33 kPa, x1 = 0.5704 | 0.3822 ± 0.01
298.15 K, 101.33 kPa, x1 = 0.5822 | 0.3759 ± 0.0041
298.15 K, 101.33 kPa, x1 = 0.7092 | 0.4165 ± 0.0044
298.15 K, 101.33 kPa, x1 = 0.7216 | 0.4254 ± 0.011
298.15 K, 101.33 kPa, x1 = 0.821 | 0.4673 ± 0.0049
298.15 K, 101.33 kPa, x1 = 0.8811 | 0.5139 ± 0.013
298.15 K, 101.33 kPa, x1 = 0.9055 | 0.5208 ± 0.0053
298.15 K, 101.33 kPa, x2 = 0.0488 | 0.55 ± 0.01
298.15 K, 101.33 kPa, x2 = 0.05393 | 0.5662 ± 0.0051
298.15 K, 101.33 kPa, x2 = 0.1122 | 0.5225 ± 0.0048
298.15 K, 101.33 kPa, x2 = 0.1676 | 0.466 ± 0.009
298.15 K, 101.33 kPa, x2 = 0.2079 | 0.472 ± 0.0045
298.15 K, 101.33 kPa, x2 = 0.2486 | 0.434 ± 0.008
298.15 K, 101.33 kPa, x2 = 0.3095 | 0.4294 ± 0.0041
298.15 K, 101.33 kPa, x2 = 0.3321 | 0.397 ± 0.008
298.15 K, 101.33 kPa, x2 = 0.3638 | 0.386 ± 0.008
298.15 K, 101.33 kPa, x2 = 0.4168 | 0.373 ± 0.007
298.15 K, 101.33 kPa, x2 = 0.4197 | 0.3921 ± 0.0039
298.15 K, 101.33 kPa, x2 = 0.4682 | 0.358 ± 0.007
298.15 K, 101.33 kPa, x2 = 0.5004 | 0.3712 ± 0.0037
298.15 K, 101.33 kPa, x2 = 0.5206 | 0.347 ± 0.007
298.15 K, 101.33 kPa, x2 = 0.5934 | 0.3533 ± 0.0036
298.15 K, 101.33 kPa, x2 = 0.626 | 0.328 ± 0.007
298.15 K, 101.33 kPa, x2 = 0.6857 | 0.3394 ± 0.0035
298.15 K, 101.33 kPa, x2 = 0.7434 | 0.312 ± 0.007
298.15 K, 101.33 kPa, x2 = 0.7913 | 0.3268 ± 0.0034
298.15 K, 101.33 kPa, x2 = 0.8753 | 0.299 ± 0.006
298.15 K, 101.33 kPa, x2 = 0.8834 | 0.3202 ± 0.0033
298.15 K, 101.33 kPa, x2 = 0.9498 | 0.294 ± 0.006
308.15 K, 101 kPa, x2 = 0.07 | 0.486 ± 0.013
308.15 K, 101 kPa, x2 = 0.182 | 0.441 ± 0.012
308.15 K, 101 kPa, x2 = 0.265 | 0.415 ± 0.012
308.15 K, 101 kPa, x2 = 0.405 | 0.384 ± 0.011
308.15 K, 101 kPa, x2 = 0.563 | 0.361 ± 0.01
323.15 K, 101 kPa, x2 = 0.07 | 0.407 ± 0.011
323.15 K, 101 kPa, x2 = 0.182 | 0.374 ± 0.01
323.15 K, 101 kPa, x2 = 0.265 | 0.356 ± 0.01
323.15 K, 101 kPa, x2 = 0.405 | 0.334 ± 0.009
323.15 K, 101 kPa, x2 = 0.563 | 0.32 ± 0.009
